The target in assay [1] is T1, Ras farnesyl transferase (Rattus norvegicus, UniProt Q02293+Q04631).
T1 construct: endogenous in cells; host or cells: Rat2 fibroblasts transformed with C-Harvey-Ras or with the H-Ras/K-Ras polybasic-domain fusion
Put plainly: In vivo (intracellular) Ras farnesylation inhibition in Rat2 cell line expressing C-Harvey-Ras. The assay is classed as cell-based. The following applies: Rat2 cells expressing C-Harvey-Ras; concentration inhibiting 50% of farnesyl binding; read-out: H-Ras CIC50. The protocol:
(§1) In the present experiment, Rat2 cell line which expresses C-Harvey-Ras protein having transforming activity and Rat2 cell line(Korean patent application No. 97-14409) which is transformed with fused protein of H-Ras substituted with polybasic lysine domain at C-terminus of K-Ras were used. The experiment was performed by the modified Declue's method(Declue. J. E. et al., Cancer Research, 51, 712, 1991) as follows.
(§2) 3×10^5 cells of transformed Rat2 fibroblast cell line were sprayed on 60 mm cell cultivation dish and cultivated for 48 hours in a cell incubator at 37° C. and after 50% or more of density was reached, it was treated with the test compounds. The compound according to the present invention dissolved in dimethylsulfoxide(DMSO) was used. 1% concentration of dimethylsulfoxide was used in both control and test groups. After 4 hours from the treatment with the compound, methionine labeled with 150 μCi of radioactive isotope [^35S] per 1 ml of medium was added and after cultivating for 20 hours, the cells were washed with physiological saline water. The cells were lysed using 1 ml of cold cell lysis buffer solution(50 mM of Sodium HEPES buffer solution containing 5 mM of magnesium chloride, 1 mM of DTT, 1% NP 40, 1 mM of EDTA, 1 mM of PMSF, 2 μM of leupeptin, 2 μM of pepstatin A and 2 μM of antipain) and the supernatant wherein the cells were lysed was obtained by high-velocity centrifugation of 12,000 g×5 minutes. The amount of radioisotope in the supernatant was measured and standardized to obtain a quantitative result in immunoprecipitation reaction and then, Y13-259, a monoclonal antiboby specifically binding to Ras protein(see: Furth, M. E. et al., J. Virol, 43, 294, 1982) was added and reacted for 15 hours at 4° C. Protein A(combined with goat anti-murine immunoglobulin antibody)-agarose suspension was added to the solution and reacted for 1 hour at 4° C. and then, to remove the unspecific binding product, immunoprecipitates were washed with a buffer solution (50 mM Tris chloride buffer solution containing 50 mM of sodium chloride, 0.5% of sodium dioxycholate, 0.5% of NP 40 and 0.1% of SDS). The precipitates were added to a buffer solution for electrophoresis and boiled and then, electrophoresis was performed using 13.5% of SDS polyacrylamide gel. After electrophoresis, the gel was fixed and dried. Then, the gel was exposed to X-ray film, developed and printed. From the result of the experiment, intensities of band of protein combined with or without farnesyl of Ras protein was measured, and the concentration of the test compound inhibiting 50% of farnesyl binding was defined as CIC50, an in vivo Ras farnesyl transferase inhibitory activity. IC50 means the data from Experimental 1 and CIC50 means the data from Experimental 2.

Assay [2] has as its target T2, Ras farnesyl transferase (Homo sapiens, UniProt P49354+P49356).
T2 construct: made in house
Kind of assay: Ras farnesyl transferase enzyme inhibition, K-Ras substrate (H-Ras fused with polybasic lysine domain of K-Ras). The assay is classed as biochemical. The following applies: K-Ras substrate (fused protein of H-Ras with polybasic lysine domain of K-Ras); recombinant farnesyl transferase. The source says: (§3) In the present experiment, the improved Pompliano's method (see: Pompliano et al., Biochemistry, 31, 3800, 1992) was applied. Specifically, Ras farnesyl transferase produced by genetic recombination techniques was used, and fused protein of H-Ras(H-Ras-CVLS) substituted with polybasic lysine domain at C-terminus of K-Ras (see: Korean Patent Appln. No. 97-14409) was used as a substrate after it had been purified according to the known method(see, Chung et al., Biochimica et Biophysica Acta, 1129, 278, 1992).
(§4) The enzyme reaction was performed in 50 μl of 50 mM Sodium HEPES buffer solution containing 25 mM of potassium chloride, 25 mM of magnesium chloride, 10 mM of DTT and 50 μM of zinc chloride. 1.5 μM of Ras substrate protein, 0.15 μM of tritium-farnesylpyrophosphate and 4.5 nM of farnesyl transferase were used. More specifically, in the initial step, farnesyl transferase was added to the above buffer solution, reaction was maintained for 30 minutes at 37° C. and then the reaction was stopped by adding 1 ml of ethanol solution containing 1M HCl. The formed precipitates were adsorbed to GF/B filter using Hopper harvestor(Hopper #FH 225V) for filter-binding, washed with ethanol, and then radioactivity of the dried filter was measured using LKB β counter. Enzyme titer was measured in the unsaturated state of substrate where the concentration of Ras substrate protein and farnesyl transferase have quantitative relationship. The compound according to the present invention dissolved in dimethyl sulfoxide(DMSO) was added to the reaction solution in an amount of less than 5% of the total reaction solution, and then the enzyme inhibitory activity thereof was measured. The enzyme inhibitory activity was represented by percentage of the amount of farnesyl incorporated into the Ras substrate protein in the presence of the test compound to that in the absence of the test compound. IC50 of the test compound was defined as the concentration at which 50% of the enzyme activity was inhibited. To evaluate the selective enzyme inhibitory activity of the compound according to the present invention, inhibitory activity on geranylgeranyl transferase was measured. Geranylgeranyl transferase was purified from bovine brain according to the modified Schaber's method(Schaber et al., J. Biol. Chem. 265, 14701, 1990), and substantially the same experimental procedure as that for farnesyl transferase was performed on geranylgeranyl pyrophosphate and Ras-CVIL substrate protein.

Assay [3] has as its target T1, Ras farnesyl transferase. Kind of assay: In vivo (intracellular) Ras farnesylation inhibition in Rat2 cell line transformed with H-Ras fused with polybasic lysine domain of K-Ras. The following applies: Rat2 cells transformed with H-Ras/K-Ras polybasic domain fused protein; concentration inhibiting 50% of farnesyl binding; read-out: K-Ras CIC50. The format is cell-based. The protocol: as §1, §2

Assay [4] deals with T2, Ras farnesyl transferase. Kind of assay: Ras farnesyl transferase enzyme inhibition, H-Ras substrate. The following applies: H-Ras substrate protein; recombinant farnesyl transferase; 30 minutes at 37° C. The format is biochemical.
Text: as §3, §4

The structures appear in SMILES notation.

For `Cc1ncn(Cc2ccc3ccccc3c2)c1Cn1cc(C(=O)N2CCN(C)CC2)c(-c2cccc3ccccc23)c1` [Example 55, 1-[4-methyl-1-(naphthalen-2-yl)methyl-1H-imidazol-5-ylmethyl]-3-(4-methylpiperazin-1-yl)carbonyl-4-(naphthalen-1-yl)-1H-pyrrole], the IC50 on Ras farnesyl transferase [1] is under 0.01 µM; on Ras farnesyl transferase [2], under 0.03 µM; on Ras farnesyl transferase [3], over 10 µM; at Ras farnesyl transferase [4], under 0.01 µM.

Regarding `O=[N+]([O-])c1cn(Cc2cncn2Cc2ccc3c(c2)OCO3)cc1-c1cccc2ccccc12` [Example 36, 1-[1-(3,4-methylenedioxybenzyl)-1H-imidazol-5-ylmethyl]-4-(naphthalen-1-yl)-3-nitro-1H-pyrrole], the IC50 is over 0.1 µM on Ras farnesyl transferase [1], under 0.0155 µM at Ras farnesyl transferase [2], over 20 µM at Ras farnesyl transferase [3] and under 0.0055 µM at Ras farnesyl transferase [4].

Consider `CN1CCN(C(=O)c2cn(Cc3cnc(N)n3Cc3ccc4c(c3)OCO4)cc2-c2cccc3ccccc23)CC1` [Example 17, 1-[2-amino-1-(3,4-methylenedioxybenzyl)-1H-imidazol-5-ylmethyl]-3-(4-methylpiperazin-1-yl)carbonyl-4-(naphthalen-1-yl)-1H-pyrrole], for which the IC50 was over 0.025 µM on Ras farnesyl transferase [1], under 0.0064 µM on Ras farnesyl transferase [2], over 10 µM at Ras farnesyl transferase [3] and under 0.0018 µM on Ras farnesyl transferase [4].

With `Cc1ncc(Cn2cc(C(=O)N3CCN(C)CC3)c(-c3cccc4ccccc34)c2)n1Cc1ccc2c(c1)OCO2` [Example 15, 1-[2-methyl-1-(3,4-methylenedioxybenzyl)-1H-imidazol-5-ylmethyl]-3-(4-methylpiperazin-1-yl)carbonyl-4-(naphthalen-1-yl)-1H-pyrrole], the IC50 was over 0.025 µM at Ras farnesyl transferase [1], under 0.013 µM at Ras farnesyl transferase [2], over 10 µM at Ras farnesyl transferase [3] and under 0.006 µM on Ras farnesyl transferase [4].

As for `Cc1ncn(Cc2ccc3c(c2)OCO3)c1Cn1cc(C(=O)N2CCN(C)CC2)c(-c2cc(Cl)cc3ccccc23)c1` [Example 52, 4-(3-chloronaphthalen-1-yl)-1-[4-methyl-1-(3,4-methylenedioxybenzyl)-1H-imidazol-5-ylmethyl]-3-(4-methylpiperazin-1-yl)carbonyl-1H-pyrrole], the IC50 on Ras farnesyl transferase [1] was under 0.01 µM; on Ras farnesyl transferase [2], under 0.03 µM; on Ras farnesyl transferase [3], over 10 µM; at Ras farnesyl transferase [4], under 0.01 µM.

For `Nc1cn(Cc2cncn2Cc2ccc(Cl)cc2)cc1-c1cccc2ccccc12` [Example 50, 3-amino-1-[1-(4-chlorobenzyl)-1H-imidazol-5-ylmethyl]-4-(naphthalen-1-yl)-1H-pyrrole], the IC50 on Ras farnesyl transferase [1] was over 0.05 µM; at Ras farnesyl transferase [2] it was over 0.03 µM; on Ras farnesyl transferase [3], over 10 µM; on Ras farnesyl transferase [4], over 0.03 µM.

In the case of `O=[N+]([O-])c1cn(Cc2cncn2CCc2ccccc2)cc1-c1cccc2ccccc12` [Example 39, 1-[1-(phenethyl)-1H-imidazol-5-ylmethyl]-4-(naphthalen-1-yl)-3-nitro-1H-pyrrole], the IC50 on Ras farnesyl transferase [1] was under 0.025 µM; at Ras farnesyl transferase [2], under 0.0083 µM; on Ras farnesyl transferase [3], over 10 µM; at Ras farnesyl transferase [4] it was under 0.006 µM.

As to `O=[N+]([O-])c1cn(Cc2cncn2Cc2ccc(Cl)cc2)cc1-c1cccc2ccccc12` [Example 37, 1-[1-(4-chlorobenzyl)-1H-imidazol-5-ylmethyl]-4-(naphthalen-1-yl)-3-nitro-1H-pyrrole], the IC50 on Ras farnesyl transferase [1] is over 0.025 µM; at Ras farnesyl transferase [2], under 0.0095 µM; on Ras farnesyl transferase [3] it was over 10 µM; on Ras farnesyl transferase [4], under 0.0057 µM.

On to `Cc1ccc(CCn2cncc2Cn2cc(-c3cccc4ccccc34)c([N+](=O)[O-])c2)cc1` [Example 40, 1-[1-(4-methylphenethyl)-1H-imidazol-5-ylmethyl]-4-(naphthalen-1-yl)-3-nitro-1H-pyrrole], for which the IC50 at Ras farnesyl transferase [1] is over 0.05 µM; at Ras farnesyl transferase [2], over 0.03 µM; on Ras farnesyl transferase [3], over 10 µM; at Ras farnesyl transferase [4] it was under 0.024 µM.

Regarding `O=[N+]([O-])c1cn(Cc2cncn2Cc2ccc3ccccc3c2)cc1-c1cccc2ccccc12` [Example 49, 1-[1-(naphthalen-2-ylmethyl)-1H-imidazol-5-ylmethyl]-4-(naphthalen-1-yl)-3-nitro-1H-pyrrole], the IC50 is over 0.05 µM at Ras farnesyl transferase [1], over 0.03 µM at Ras farnesyl transferase [2], over 10 µM at Ras farnesyl transferase [3] and under 0.03 µM on Ras farnesyl transferase [4].

Regarding `CCSc1c(C(=O)N2CCN(C)CC2)c(-c2cccc3ccccc23)cn1Cc1cncn1Cc1ccc2c(c1)OCO2` [Example 25, 2-ethylthio-1-[1-(3,4-methylenedioxybenzyl)-1H-imidazol-5-ylmethyl]-3-(4-methylpiperazin-1-yl)carbonyl-4-(naphthalen-1-yl)-1H-pyrrole], the IC50 on Ras farnesyl transferase [1] was under 0.01 µM; on Ras farnesyl transferase [2] it was under 0.006 µM; at Ras farnesyl transferase [3], under 5 µM; on Ras farnesyl transferase [4] it was under 0.002 µM.

For `CCOCCCn1cncc1Cn1cc(-c2cccc3ccccc23)c([N+](=O)[O-])c1` [Example 47, 1-[1-(3-ethoxypropyl)-1H-imidazol-5-ylmethyl]-4-(naphthalen-1-yl)-3-nitro-1H-pyrrole], the IC50 was under 0.0125 µM at Ras farnesyl transferase [1], under 0.029 µM on Ras farnesyl transferase [2], over 10 µM at Ras farnesyl transferase [3] and under 0.015 µM at Ras farnesyl transferase [4].

For the compound `COCCN(C)C(=O)c1cn(Cc2cncn2CCCOCc2ccccc2)cc1-c1cccc2ccccc12` [Example 1, 1-[1-(3-benzyloxypropyl)-1H-imidazol-5-yl]methyl-3-[N-(2-methoxyethyl)-N-methyl]carbamoyl-4-(naphthalen-1-yl)-1H-pyrrole], the IC50 at Ras farnesyl transferase [1] was under 0.025 µM; on Ras farnesyl transferase [2] it was under 0.01 µM; at Ras farnesyl transferase [3] it was 10 to 50 µM; on Ras farnesyl transferase [4] it was under 0.01 µM.

For the compound `CN1CCN(C(=O)c2cn(Cc3cncn3CCCOCc3ccccc3)cc2-c2cccc3ccccc23)CC1` [Example 3, 1-[1-(3-benzyloxypropyl)-1H-imidazol-5-yl]methyl-3-(4-methylpiperazin-1-yl)carbonyl-4-(naphthalen-1-yl)-1H-pyrrole], the IC50 at Ras farnesyl transferase [1] is under 0.025 µM; at Ras farnesyl transferase [2], under 0.01 µM; on Ras farnesyl transferase [3], 10 to 50 µM; on Ras farnesyl transferase [4], under 0.01 µM.

The record behind these values is US6511978B1, “Pyrrole derivatives useful for farnesyl transferase inhibitors and their preparations” (LG Life Sciences, Ltd., priority 1999, dated 2003).
